Results as given in patent US20240423995A1, “C-KIT INHIBITORS AND USES FOR TREATING AND PREVENTING INFLAMMATORY CONDITIONS” (GEORGETOWN UNIVERSITY, priority 2023, published 2024).

Legend:
DDR2 = biological target: T1, DDR2 (Homo sapiens, UniProt Q16832); test: KINASESEEKER competition binding assay, DDR2; settings: minimum 8-point curve, duplicate
T1 construct: purchased Luceome Biotechnologies, LLC
T1 sequence (Q16832 22-855): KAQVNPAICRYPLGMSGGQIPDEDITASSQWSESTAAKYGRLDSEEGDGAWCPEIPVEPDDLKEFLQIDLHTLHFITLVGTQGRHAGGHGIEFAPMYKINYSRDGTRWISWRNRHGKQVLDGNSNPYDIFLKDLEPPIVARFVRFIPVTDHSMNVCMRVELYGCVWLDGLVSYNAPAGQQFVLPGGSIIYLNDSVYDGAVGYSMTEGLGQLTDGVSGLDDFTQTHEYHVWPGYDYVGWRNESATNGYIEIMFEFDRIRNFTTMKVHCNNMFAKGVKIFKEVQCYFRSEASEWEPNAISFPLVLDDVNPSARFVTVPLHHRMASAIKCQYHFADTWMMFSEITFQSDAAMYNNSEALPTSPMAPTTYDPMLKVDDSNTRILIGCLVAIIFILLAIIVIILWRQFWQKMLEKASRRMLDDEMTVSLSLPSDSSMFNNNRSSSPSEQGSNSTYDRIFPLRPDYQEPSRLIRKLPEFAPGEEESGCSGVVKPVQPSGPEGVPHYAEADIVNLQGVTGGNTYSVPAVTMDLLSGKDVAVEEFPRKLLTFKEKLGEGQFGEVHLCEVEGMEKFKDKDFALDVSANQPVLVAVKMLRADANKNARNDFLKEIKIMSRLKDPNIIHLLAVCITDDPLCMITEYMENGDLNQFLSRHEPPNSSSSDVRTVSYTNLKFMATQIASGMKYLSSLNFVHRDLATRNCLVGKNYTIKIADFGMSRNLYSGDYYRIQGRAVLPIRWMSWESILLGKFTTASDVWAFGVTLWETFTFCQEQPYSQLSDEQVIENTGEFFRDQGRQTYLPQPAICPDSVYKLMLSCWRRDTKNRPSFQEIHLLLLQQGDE
Experimental: Kinase assays were performed using KINASESEEKER™ (Luceome Biotechnologies, LLC; Tucson, AZ). KINASESEEKER™ is a homogeneous competition binding assay in which the displacement of an active site-dependent probe by an inhibitor is measured by a change in luminescence signal. Luminescence readout translates into a highly sensitive and robust assay with low background and minimal interference from test compounds. See J. Am. Chem. Soc., 2010, 132, 11727-11735.
Stock solutions of compounds were serially diluted in DMSO to make assay stocks. Prior to initiating IC50 determination, the test compounds were evaluated for false positives against split-luciferase. The compounds were screened against kinases at a minimum of 8 different concentrations in duplicate. For kinase assays, a 24 μL aliquot of lysate containing Cfluc-kinase and Fos-Nfluc was incubated for 2 hours with either 1 μL of DMSO (for no-inhibitor control) or compound solution in DMSO in presence of a kinase specific probe. 80 μL of luciferin assay reagent was added to each solution and luminescence was immediately measured on a luminometer.
The % Inhibition and % Activity Remaining was calculated using the following equation: […]
The % Activity Remaining was plotted against compound concentration and the IC50 was determined for each compound using a minimum 8-point curve.

KIT = biological target: T2, KIT (Homo sapiens, UniProt P10721); test: KINOMEscan competition binding screen, KIT; settings: for remaining binding at 10 µM: lower = stronger binding, read-out: % Ctrl @ 10 μM
T2 construct: purchased Eurofins DiscoverX Corporation
Experimental: (§1) The KINOMEscan™ screening platform (Eurofins DiscoverX Corporation, San Diego, USA) was performed using an active site-directed competition binding assay to quantitatively measure interactions between BK40143, BK40197, BK40195, and BK40196 and more than 450 human kinases and disease relevant mutant variants. […] Screening “hits” were identified by measuring the amount of kinase captured in test (BK40143, BK40197, BK40195, and BK40196) versus control samples by using a quantitative and ultra-sensitive qPCR method that detects the associated DNA label. BK40143, BK40197, BK40195, and BK40196 were screened at 10 μM concentration, and results for primary screen binding interactions were reported as ‘% Ctrl’ (POC), where lower numbers indicate stronger hits and calculated as follows:
(§2) [formula] • test compound=BK40143 or BK40197 or BK40195 or BK40196 • negative control=DMSO (100% Ctrl) • positive control=control compound (0% Ctrl)
(§3) Based on screening data of profiled compounds, a proportional relationship between primary screening results and corresponding compound/target affinities can be described as binding constants (Kd values) for the indicated ranges of percent of control (PoC) values, with tighter binding (higher affinity) interactions associated with lower PoC values, and weaker binding (lower affinity) associated with higher PoC values. Briefly, kinase-tagged T7 phage strains were grown in parallel in 24-well blocks in an E. coli host derived from the BL21 strain. E. coli were grown to log-phase and infected with T7 phage from a frozen stock (multiplicity of infection=0.4) and incubated with shaking at 32° C. until lysis (90-150 minutes). The lysates were centrifuged (6,000×g) and filtered ([…]) to remove cell debris. The remaining kinases were produced in HEK-293 cells and subsequently tagged with DNA for qPCR detection. Streptavidin-coated magnetic beads were treated with biotinylated small molecule ligands for 30 minutes at room temperature to generate affinity resins for kinase assays. The liganded beads were blocked with excess biotin and washed with blocking buffer (SeaBlock (Pierce), 1% BSA, 0.05% Tween 20, 1 mM DTT) to remove unbound ligand and to reduce non-specific phage binding. Binding reactions were assembled by combining kinases, liganded affinity beads, and test compounds in 1× binding buffer (20% SeaBlock, 0.17×PBS, 0.05% Tween 20, 6 mM DTT). Test compounds were prepared as 100× stocks in 100% DMSO and directly diluted into the assay. All reactions were performed in polypropylene 384-well plates in a final volume of 0.02 ml. The assay plates were incubated at room temperature with shaking for 1 hour and the affinity beads were washed with wash buffer (1×PBS, 0.05% Tween 20). The beads were then re-suspended in elution buffer (1×PBS, 0.05% Tween 20, 0.5 μM non-biotinylated affinity ligand) and incubated at room temperature with shaking for 30 minutes. The kinase concentration in the eluates was measured by qPCR.

KIT (D816V) = biological target: T3, KIT (D816V) (Homo sapiens, UniProt P10721, D816V); test: KINOMEscan competition binding screen, KIT (D816V); settings: for remaining binding at 10 µM: read-out: % Ctrl @ 10 μM
T3 construct: purchased Eurofins DiscoverX Corporation
Experimental: as §1, §2, §3

KIT (V559D) = biological target: T4, KIT (V559D) (Homo sapiens, UniProt P10721, V559D); test: KINOMEscan competition binding screen, KIT (V559D); settings: for remaining binding at 10 µM: read-out: % Ctrl @ 10 μM
T4 construct: purchased Eurofins DiscoverX Corporation
Experimental: as §1, §2, §3

KIT (V559D, V654A) = biological target: T5, KIT (V559D, V654A) (Homo sapiens, UniProt P10721, V559D/V654A); test: KINOMEscan competition binding screen, KIT (V559D, V654A); settings: for remaining binding at 10 µM: read-out: % Ctrl @ 10 μM
T5 construct: purchased Eurofins DiscoverX Corporation
Experimental: as §1, §2, §3

KIT autoinhibited = biological target: T6, KIT autoinhibited (Homo sapiens, UniProt P10721); test: KINOMEscan competition binding screen, KIT autoinhibited; settings: for remaining binding at 10 µM: read-out: % Ctrl @ 10 μM
T6 construct: purchased Eurofins DiscoverX Corporation
Experimental: as §1, §2, §3

T5 sequence (P10721 26-976 V559D/V654A): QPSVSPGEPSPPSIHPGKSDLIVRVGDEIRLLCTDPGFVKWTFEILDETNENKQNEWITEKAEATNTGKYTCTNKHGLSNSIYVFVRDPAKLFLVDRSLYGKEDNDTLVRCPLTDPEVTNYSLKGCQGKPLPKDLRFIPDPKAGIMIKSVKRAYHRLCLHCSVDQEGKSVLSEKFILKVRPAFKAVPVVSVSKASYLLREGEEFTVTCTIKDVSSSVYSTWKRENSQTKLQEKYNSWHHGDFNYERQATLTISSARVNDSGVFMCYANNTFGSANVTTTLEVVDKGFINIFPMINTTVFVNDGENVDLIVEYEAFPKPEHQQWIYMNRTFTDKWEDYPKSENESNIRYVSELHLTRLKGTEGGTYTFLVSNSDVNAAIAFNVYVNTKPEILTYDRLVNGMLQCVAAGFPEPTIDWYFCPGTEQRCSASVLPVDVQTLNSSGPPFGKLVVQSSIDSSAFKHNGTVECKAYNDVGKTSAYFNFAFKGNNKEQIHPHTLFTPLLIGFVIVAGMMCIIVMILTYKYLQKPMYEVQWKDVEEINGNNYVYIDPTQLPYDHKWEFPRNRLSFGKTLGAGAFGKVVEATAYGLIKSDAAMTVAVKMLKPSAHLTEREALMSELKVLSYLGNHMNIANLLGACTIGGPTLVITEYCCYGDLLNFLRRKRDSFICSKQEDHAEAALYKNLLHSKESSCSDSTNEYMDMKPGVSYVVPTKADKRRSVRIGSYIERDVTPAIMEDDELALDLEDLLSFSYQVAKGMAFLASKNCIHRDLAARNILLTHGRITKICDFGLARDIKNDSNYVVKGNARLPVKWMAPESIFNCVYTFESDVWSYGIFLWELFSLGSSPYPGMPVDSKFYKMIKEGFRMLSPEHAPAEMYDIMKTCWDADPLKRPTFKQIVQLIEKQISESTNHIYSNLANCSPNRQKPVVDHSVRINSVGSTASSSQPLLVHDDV
T3 sequence (P10721 26-976 D816V): as the sequence (P10721 26-976 V559D/V654A) above, with D534V, A629V, D791V counted along it
T6 sequence (P10721 544-976 limits assumed): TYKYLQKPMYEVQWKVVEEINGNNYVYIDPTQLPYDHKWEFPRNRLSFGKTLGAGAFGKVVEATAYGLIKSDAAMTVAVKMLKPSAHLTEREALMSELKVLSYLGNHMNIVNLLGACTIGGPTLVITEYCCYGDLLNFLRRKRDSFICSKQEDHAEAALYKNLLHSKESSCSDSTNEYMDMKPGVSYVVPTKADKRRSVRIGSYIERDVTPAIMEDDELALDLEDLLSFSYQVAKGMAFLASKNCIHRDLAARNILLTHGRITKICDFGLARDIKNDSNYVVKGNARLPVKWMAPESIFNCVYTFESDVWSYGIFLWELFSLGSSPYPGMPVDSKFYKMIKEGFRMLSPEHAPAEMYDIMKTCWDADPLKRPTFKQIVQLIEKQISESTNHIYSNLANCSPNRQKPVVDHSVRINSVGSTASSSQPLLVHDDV
T2 sequence (P10721 26-976): as the sequence (P10721 26-976 V559D/V654A) above, with D534V, A629V counted along it
T4 sequence (P10721 26-976 V559D): as the sequence (P10721 26-976 V559D/V654A) above, with A629V counted along it

Row | Compound | IC50 (DDR2) | inhibition at 10 µM (KIT) | remaining binding at 10 µM (KIT) | inhibition at 10 µM (KIT (D816V)) | remaining binding at 10 µM (KIT (D816V)) | inhibition at 10 µM (KIT (V559D)) | remaining binding at 10 µM (KIT (V559D)) | inhibition at 10 µM (KIT (V559D, V654A)) | remaining binding at 10 µM (KIT (V559D, V654A)) | inhibition at 10 µM (KIT autoinhibited) | remaining binding at 10 µM (KIT autoinhibited)
1 | Cc1cccc(-c2cc3nccc(Nc4cccc(O)c4)c3s2)c1 [BK40196] | 0.922 ± 0.13 µM | 100% | 0% | 99.8% | 0.2% | 100% | 0% | 98.7% | 1.3% | 44% | 56%
2 | Cc1cccc(-c2cc3nccc(Nc4ccccc4)c3s2)c1 [BK40143] | 6.03 ± 0.93 µM | 100% | 0% | 65% | 35% | 99.8% | 0.25% | 82% | 18% | 31% | 69%
3 | COc1cccc(Nc2ccnc3cc(-c4cccc(C)c4)sc23)c1 [BK40195] | 1.9 ± 0.26 µM | 100% | 0% | 98.3% | 1.7% | 99.8% | 0.2% | 97.5% | 2.5% | 78% | 22%
4 | Cc1cccc(-c2cc3nccc(N4CCOCC4)c3s2)c1 [BK40197] | – | 97.7% | 0.3% | 33% | 67% | 99.7% | 0.35% | 79% | 21% | 48% | 52%
